Laboratory results reported in US5198452A, “Styryl phridyl compounds and their pharmaceutical compositions” (Yoshitomi Pharmaceutical Industries, Ltd., priority 1991, dated 1993).
Where two headings read alike, the source gives them in different places.

Tests used:
[1] = tested on: leukotriene D4-induced contraction of guinea pig terminal ileum; assay: Inhibition of contractions of guinea pig terminal ileum induced with leukotriene D4; set-up: species or system guinea pig (male Hartly); settings: 1 nM LTD4; 2 min incubation; indomethacin 3 μM, atropin 0.3 μM; 37° C
Protocol: The inhibition of contractions of guinea pig terminal ileum induced with leukotriene D4.
Segments of male Hartly guinea pig terminal ileus were mounted under 750 mg tension in a 10 ml organ bath containing a Tyrode solution. To eliminate instrinsic prostaglandin and cholinergic responses, indomethacin (3 μM) and atropin (0.3 μM) were incorporated into bathing solution under continuous aeration at 37° C. […] measurements were made with an isotonic transducer and recorded on a multipen-recorder. After an equilibration period of 30-60 minutes, isotonic responses were 1 nm LTD4 were recorded until reproducible responses obtained. The submaximal contraction induced by 1 nM LTD4 served as control. Test compounds were dissolved in ethanol (0.1% final concentration) and incubated at various concentrations for 2 minutes before contractions were induced with 1 nM LTD4. The inhibition of contraction was calculated relative to the preceding control contraction. The inhibitory concentration (IC50, g/ml) were calculated graphically.

[2] = tested on: bronchoconstriction in guinea pigs induced with leukotriene D4; assay: Bronchoconstriction in guinea pigs induced with leukotriene D4; format: in vivo, guinea pig (female Hartley); settings: Cavia porcellus
Protocol: Actions of bronchoconstriction in guinea pigs induced with leukotriene D4.
Resistance to lung inflation was measured by the overflow method of Konzett and Rossler (Naunyn Schmiedebergs Arch. Exp. pathol. Pharmakol., 195, 71-74, 1940), modified by the use of an air pressure transducer. Female Hartley guinea pigs (350-450 g) were anesthetized with urethane (1.5 g/kg, i.p.). An endotracheal tube was inserted in the trachea and connected to an air pump (Matsushita Denko Co., Ltd.) with an exhaust relay of 50 strokes/minutes (PK-0305-NC, Takasago Electric, Inc.). The animals were artificially ventilated at a constant volume (3-4 ml). Tracheal pressure was recorded with a side-arm of the cannula connected to a pressure transducer (MFP-1, Nihon Kohden Kogyo Co., Ltd.). Test compounds or vehicles were administered i.v. (0.03 ml/100 g) 5 minutes or p.o. (0.5 ml/100 g) 1 hour prior to the intraveneous injection of LT04 (1 μg/kg). All compounds were injected through the cannulated jugular vein. The peak bronchoconstriction of each animal was determined as the percentage of the maximal pressure obtained by clamping off the trachea at the end of each experiment.
The inhibitory effect of the test compounds were expressed as follows: % of inhibition=(1-T/C)×100 wherein T and C are the average peak bronchoconstrictions for the compounds of the present invention and the vehicle, respectively.
The 50% effective doses (ED50, mg/kg) were calculated graphically.

Acute toxicity = settings: mouse, in vivo, single administration, after 10 days, Litchfield-Wilcoxon
Protocol: EXPERIMENT EXAMPLE 3: ACUTE TOXICITY
The compound of Example 1 of the present invention was intraveneously (iv) or orally (po) administered to a group of male ddy mice once. After 10 days, the LD50 values were determined by the Litchfield-Wilcoxon method.

[3] = 5 min, iv, 5 minutes prior to LTD4 (1 μg/kg i.v.), read-out: Action of Bronchoconstriction in guinea pigs induced with LTD4 [ED50 (mg/kg)] iv
[4] = po, 1 hour prior to LTD4 (1 μg/kg i.v.), read-out: Action of Bronchoconstriction in guinea pigs induced with LTD4 [ED50 (mg/kg)] po

CCC(CC)(CC(=O)Nc1cccc(/C=C/c2cccc(COCCCCc3ccccc3)n2)c1)C(=O)O [Compound A, 2-[(E)-2-(3-(3-carboxy-3-ethylvalerylamino)phenyl)ethenyl]-6-(4-phenylbutoxy)methylpyridine 1/2 hydrate]
The inhibition of contractions of guinea pig terminal ileum induces with LTD4 [IC50 (g/ml)] [1]: 2.2e-09 g/mL | ED50 [2, 3]: 0.037 mg/kg | ED50 [2, 4]: 1.3 mg/kg

CCCCc1ccc(CCCCOCc2cccc(/C=C/c3cccc(NC(=O)CC(CC)(CC)C(=O)O)c3)n2)cc1 [Compound B, 2-[(E)-2-(3-(3-carboxy-3-ethylvalerylamino)phenyl)ethenyl]-6-[4-(4-butylphenyl)butoxy]methylpyridine]
The inhibition of contractions of guinea pig terminal ileum induces with LTD4 [IC50 (g/ml)] [1]: 1.1e-10 g/mL | ED50 [2, 3]: 0.0054 mg/kg | ED50 [2, 4]: 0.8 mg/kg

CCC(CC)(CC(=O)Nc1cccc(/C=C/c2cccc(COCCCCc3ccc(F)cc3)n2)c1)C(=O)O [Compound C, 2-[(E)-2-(3-(3-carboxy-3-ethylvalerylamino)phenyl)ethenyl]-6-[4-(4-fluorophenyl)butoxy]methylpyridine 1/2 hydrate]
The inhibition of contractions of guinea pig terminal ileum induces with LTD4 [IC50 (g/ml)] [1]: 2.5e-09 g/mL | ED50 [2, 3]: 0.03 mg/kg | ED50 [2, 4]: 0.7 mg/kg

CCc1ccc(CCCCOCc2cccc(/C=C/c3cccc(NC(=O)CC(CC)(CC)C(=O)O)c3)n2)cc1 [Compound D, 2-[(E)-2-(3-(3-carboxy-3-ethylvalerylamino)phenyl)ethenyl]-6-[4-(4-ethylphenyl)butoxy]methylpyridine]
The inhibition of contractions of guinea pig terminal ileum induces with LTD4 [IC50 (g/ml)] [1]: 6.6e-11 g/mL | ED50 [2, 3]: 0.0023 mg/kg | ED50 [2, 4]: 1 mg/kg

CCCc1ccc(CCCCOCc2cccc(/C=C/c3cccc(NC(=O)CC(CC)(CC)C(=O)O)c3)n2)cc1 [Compound E, 2-[(E)-2-(3-(3-carboxy-3-ethylvalerylamino)phenyl)ethenyl]-6-[4-(4-propylphenyl)butoxy]methylpyridine 1/4 hydrate]
The inhibition of contractions of guinea pig terminal ileum induces with LTD4 [IC50 (g/ml)] [1]: 6e-10 g/mL | ED50 [2, 3]: 0.006 mg/kg | ED50 [2, 4]: 1.9 mg/kg

CCC(CC)(CC(=O)Nc1cccc(/C=C/c2cccc(COCCCCc3ccc(C(C)C)cc3)n2)c1)C(=O)O [Compound F, 2-[(E)-2-(3-(3-carboxy-3-ethylvalerylamino)phenyl)ethenyl]-6-[4-(4-isopropylphenyl)butoxy]methylpyridine]
The inhibition of contractions of guinea pig terminal ileum induces with LTD4 [IC50 (g/ml)] [1]: 4e-10 g/mL | ED50 [2, 3]: 0.014 mg/kg | ED50 [2, 4]: 2.2 mg/kg

CCC(CC)(CC(=O)Nc1cccc(/C=C/c2cccc(COCCCCc3ccc(CC(C)C)cc3)n2)c1)C(=O)O [Compound G, 2-[(E)-2-(3-(3-carboxy-3-ethylvalerylamino)phenyl)ethenyl]-6-[4-(4-isobutylphenyl)butoxy]methylpyridine]
The inhibition of contractions of guinea pig terminal ileum induces with LTD4 [IC50 (g/ml)] [1]: 3.6e-10 g/mL | ED50 [2, 3]: 0.0012 mg/kg | ED50 [2, 4]: 1.6 mg/kg

CCOc1ccc(CCCCOCc2cccc(/C=C/c3cccc(NC(=O)CC(CC)(CC)C(=O)O)c3)n2)cc1 [Compound H, 2-[(E)-2-(3-(3-carboxy-3-ethylvalerylamino)phenyl)ethenyl]-6-[4-(4-ethoxyphenyl)butoxy]methylpyridine]
The inhibition of contractions of guinea pig terminal ileum induces with LTD4 [IC50 (g/ml)] [1]: 1.8e-10 g/mL | ED50 [2, 3]: 0.01 mg/kg | ED50 [2, 4]: 2 mg/kg

CCCOc1ccc(CCCCOCc2cccc(/C=C/c3cccc(NC(=O)CC(CC)(CC)C(=O)O)c3)n2)cc1 [Compound I, 2-[(E)-2-(3-(3-carboxy-3-ethylvalerylamino)phenyl)ethenyl]-6-[4-(4-propoxyphenyl)butoxy]methylpyridine]
The inhibition of contractions of guinea pig terminal ileum induces with LTD4 [IC50 (g/ml)] [1]: 7.6e-11 g/mL | ED50 [2, 3]: 0.0023 mg/kg | ED50 [2, 4]: 2.5 mg/kg

CCCCOc1ccc(CCCCOCc2cccc(/C=C/c3cccc(NC(=O)CC(CC)(CC)C(=O)O)c3)n2)cc1 [Compound J, 2-[(E)-2-(3-(3-carboxy-3-ethylvalerylamino)phenyl)ethenyl]-6-[4-(4-butoxyphenyl)butoxy]methylpyridine 3/2 hydrate]
The inhibition of contractions of guinea pig terminal ileum induces with LTD4 [IC50 (g/ml)] [1]: 9e-11 g/mL | ED50 [2, 3]: 0.0046 mg/kg | ED50 [2, 4]: 0.46 mg/kg

CCC(CC)(CC(=O)Nc1cccc(/C=C/c2cccc(COCCCCc3ccc(OCCC(C)C)cc3)n2)c1)C(=O)O [Compound K, 2-[(E)-2-(3-(3-carboxy-3-ethylvalerylamino)phenyl)ethenyl]-6-[4-(4-isopentyloxyphenyl)butoxy]methylpyridine 1/2 hydrate]
The inhibition of contractions of guinea pig terminal ileum induces with LTD4 [IC50 (g/ml)] [1]: 3.1e-10 g/mL | ED50 [2, 3]: 0.0036 mg/kg | ED50 [2, 4]: 0.25 mg/kg

CCCc1c(OCCCCc2nnn[nH]2)ccc(C(C)=O)c1O [Compound L, 1-[2-hydroxy-3-propyl-4-(4-(1H-tetrazol-5-yl)butoxy)phenyl]ethanone, reference compound]
The inhibition of contractions of guinea pig terminal ileum induces with LTD4 [IC50 (g/ml)] [1]: 2.5e-08 g/mL | ED50 [2, 3]: 0.28 mg/kg | ED50 [2, 4]: 22 mg/kg

CCC(CC)(CC(=O)Nc1cccc(/C=C/c2cccc(COCCCCc3ccc(C)cc3)n2)c1)C(=O)O [Example 1, 2-[(E)-2-(3-(3-carboxy-3-ethylvalerylamino)phenyl)ethenyl]-6-[4-(4-methylphenyl)butoxy]methylpyridine]
LD50 at 240 h (Acute toxicity; iv, read-out: LD50 (mg/kg), iv): > 300 mg/kg | LD50 at 240 h (Acute toxicity; po, read-out: LD50 (mg/kg), po): > 1000 mg/kg
